Data: ChEMBL document CHEMBL1127689, “Novel 4-(aryloxy)tetrahydropyridine analogs of MPTP as monoamine oxidase A and B substrates” (J Med Chem, 1994)

Assay: Relative specificity for human MAO-A and bovine MAO-B

| SMILES | Selectivity |
| --- | --- |
| CN1CC=C(Cc2ccc3ccccc3c2)CC1 | 10.8 |
| CN1CC=C(c2ccccc2)CC1 | 0.27 |
| CN1CC=C(Oc2ccc(Cl)cc2Cl)CC1 | 2.47 |
| CN1CC=C(Cc2cccc3ccccc23)CC1 | 24.7 |
| CN1CC=C(Cc2ccccc2)CC1 | 0.11 |
| CN1CC=C(Oc2cccc3ccccc23)CC1 | 2.77 |

The remaining lines, values ahead:

| Selectivity | SMILES |
| --- | --- |
| 0.57 | CN1CC=C(Oc2ccccc2)CC1 |
| 2.21 | CN1CC=C(Oc2ccc3ccccc3c2)CC1 |
| 2.17 | CN1CC=C(Oc2ccc(C(C)(C)C)cc2)CC1 |
| 1.54 | CCCCc1ccc(OC2=CCN(C)CC2)cc1 |
| 4.72 | CN1CC=C(Oc2ccc(-c3ccccc3)cc2)CC1 |
